Data on six molecules can be found in article PMC7037612, “Ketone Bodies Promote Amyloid-β1–40 Clearance in a Human in Vitro Blood–Brain Barrier Model” (International Journal of Molecular Sciences, 2020).

The subject of data set [1] is BLEC monolayer. The experiment in a line: BLEC monolayer integrity: endothelial permeability to Lucifer Yellow (PeLY). The data set is classed as cell-based, human. How it is done:
No significant pH variation was observed after KB treatment compared to the control. The integrity of the BLEC monolayer after 48 h of treatment with KBs was evaluated using the method described by Dehouck et al. (1992). Each coculture condition was performed in triplicate. The fluorescent integrity marker LY was used at a final concentration of 50 μM in RH buffer to obtain the endothelial permeability coefficient (Pe) from the apical-to-basolateral compartment. The fluorescence of LY in each compartment was measured using the excitation/emission wavelength (432/538 nm) using a microplate reader (Synergy H1). In this calculation method, both the filter without cell permeability (PSf = insert filter + matrigel coating) and filter plus cell permeability (PSt = insert filter + matrigel coating + ECs) were taken into account, according to the formula: 1/PSe = 1/[…] PS is the permeability x surface area product (in microliters per minute) obtained by dividing the volume cleared from the donor to the receiver compartment (in μL) for 1 h. […] balance (%) was calculated from the amount of compound recovered in the donor and receiver compartment at the end of the experiment divided by the total amount added in the donor compartment at time zero. To be taken into account for Pe determination, the mass balance should be between 80% and 120%.

The subject of data set [2] is PC12 cells. The settings on record: PC12 cells exposed in 0–20 mM βHB; cited from earlier work. An excerpt: For a few years now, there has been an increased focus on the role of the transport of Aβ peptides across the blood–brain barrier (BBB). It appears that increasing the clearance or reducing the entry of Aβ peptides in the brain could be a promising therapeutic approach for counteracting the pathogenic processes observed in AD [52]. In recent years, there has been mounting interest in the possible utilization of a ketogenic diet (KD) or ketone body (KB) supplementations in the treatment of AD [53, 54]. On the basis of KBs’ beneficial effects on the CNS, and the lack of publ ...

Data set [3] concerns MCT1. The data set is described as follows: Western blot of MCT1 protein level in BLECs. It counts as cell-based, human. The settings on record: 48 h, 20 mM AcAc, 20 mM βHB or ratio (20 mM AcAc/20 mM βHB), Western blot normalized to β-actin, at least three independent experiments. (Immunoblotting shows a protein as a band on a membrane.)
In data set [4] the test system is human in vitro BBB model (BLECs). The experiment in a line: βHB concentration in the compartments of the in vitro BBB model. The settings on record: 20 mM βHB added apically, 48 h. The data set is classed as in vitro ADME. How it is done: (§1) During this time, the glucose and βHB concentrations were measured in both the apical compartment and the basolateral compartment. The Precision-Xtra meter (Abbott Labs, Abbott Park, IL, USA) with a glucose or β-ketone sticks was used. In these assays, the glucose and βHB concentrations measured by the sticks were representative of the glucose and βHB present in the culture medium. Data were expressed in mmol·L^−1 for βHB and in g·L^−1 for glucose. The βHB concentration within BLECs was measured at 48 h following the treatment. Briefly, after medium removal, BLECs were washed twice with RH buffer and lysed with RIPA lysis buffer (Millipore Corporation, Burlington, MA, USA). The βHB concentration in the BLECs was normalized by the protein amount using Bradford assay (Bio-rad, Munich, Germany). The amount of βHB into the supernatant was assayed using β-ketone sticks, as described above. The βHB concentration was verified in the culture medium without cells at 37 °C and 5% CO2 to ensure the stability of βHB.

The test system of data set [5] is PICALM. The data set is described as follows: Western blot of PICALM protein level in BLECs. It counts as cell-based, human. The settings on record: 48 h, 20 mM βHB or ratio, Western blot normalized to β-actin, at least three independent experiments.
Data set [6] deals with LRP1. The data set is described as follows: Western blot of LRP1 protein level in BLECs. It counts as cell-based, human. The settings on record: 48 h, 20 mM βHB or ratio, Western blot normalized to β-actin, at least three independent experiments.
Data set [7] can be described thus: Stability of βHB in culture medium. It counts as physicochemical. The settings on record: 37 °C, 5% CO2, over 48 h, β-ketone sticks. As to the method: as §1
The test system of data set [8] is GLUT1. The experiment in a line: Western blot of GLUT1 protein level in BLECs. The data set is classed as cell-based, human. The settings on record: 48 h, 20 mM βHB or ratio, Western blot normalized to β-actin, at least three independent experiments.
In data set [9] the test system is [3H]inulin transport across BLECs. The experiment in a line: [3H]inulin transport across BLECs (non-specific transport marker). The data set is classed as cell-based, human. The settings on record: 400 nM [3H]inulin, 30 min, 37 °C; for effect on basolateral-to-apical transport of [3H]inulin after ratio KB treatment: 48 h ratio treatment, 200 nM RAP basolateral or 0.5 µM elacridar apical. As to the method:
Forty-eight hours after KB treatments, the apical-to-basolateral and the basolateral-to-apical transport of Aβ1-40 across BLECs was investigated as previously described (Briefly, for apical-to-basolateral studies, filters were transferred to new 12-well plates containing 1.5 mL of RH-HSA 0.1% (the receiver solution) per well. In the insert corresponding to the apical compartment, 0.5 mL of RH-HSA 0.1% supplemented with 10 nM Aβ1-40Cy5 peptide was added (the donor solution). For basolateral-to-apical studies, filters were transferred to 12-well plates containing 1.5 mL of RH-HSA 0.1% supplemented with 10 nM fluorescent Aβ1-40Cy5 (the donor solution). In the apical compartment, 0.5 mL of RH-HSA 0.1% (the receiver solution) was added. In parallel, the apical-to-basolateral and the basolateral-to-apical transport of 400 nM [^3H]inulin was performed in the same way as the Aβ1-40Cy5 peptide transport, thus representing a paracellular marker. The BBB integrity was checked by measuring the PeLY as described in Section 4.6. […] At the end of the incubation period, aliquots of the donor and receiver solutions were collected, and the fluorescence compounds (Aβ1-40Cy5 and LY) were measured with a spectrofluorimeter (Synergy H1). The radioactivity of [^3H]inulin was measured using a scintillation counter (Hidex 300 SL, Hidex, Turku, Finland). The permeability (apparent permeability coefficient, cm.sec^−1) of Aβ1-40-Cy5 or [^3H]-inulin was calculated according to the following equation: (1) Papp = (k.V(R))/(A.60) as previously described. k was the transport rate (min^−1) defined as the slope obtained by linear regression of the cumulative fraction absorbed (FAcum) as a function of time (min), V(R) was the volume in the receiver chamber (mL), and A was the area of the filter (cm^2). Determination of the cumulative fraction absorbed (amount permeated), FAcum versus time, FAcum was calculated from: (2) FAcum = ∑ (C(Ri))/(C(Di)), where C(Ri) was the receiver concentration at the end of the interval i and C(Di) was the donor concentration at the beginning of interval i. […]

The test system of data set [10] is Aβ1–40Cy5 peptide transport across BLECs. The experiment in a line: Aβ1–40Cy5 peptide transport across BLECs. It counts as cell-based, human. The settings on record: 48 h ratio treatment; 200 nM RAP in basolateral compartment (LRP1 inhibitor) or 0.5 µM elacridar in apical compartment (P-gp inhibitor); 10 nM Aβ1–40Cy5, 30 min, 37 °C. As to the method: Forty-eight hours after KB treatments, the apical-to-basolateral and the basolateral-to-apical transport of Aβ1-40 across BLECs was investigated as previously described (Briefly, for apical-to-basolateral studies, filters were transferred to new 12-well plates containing 1.5 mL of RH-HSA 0.1% (the receiver solution) per well. In the insert corresponding to the apical compartment, 0.5 mL of RH-HSA 0.1% supplemented with 10 nM Aβ1-40Cy5 peptide was added (the donor solution). For basolateral-to-apical studies, filters were transferred to 12-well plates containing 1.5 mL of RH-HSA 0.1% supplemented with 10 nM fluorescent Aβ1-40Cy5 (the donor solution). […] At the end of the incubation period, aliquots of the donor and receiver solutions were collected, and the fluorescence compounds (Aβ1-40Cy5 and LY) were measured with a spectrofluorimeter (Synergy H1). The radioactivity of [^3H]inulin was measured using a scintillation counter (Hidex 300 SL, Hidex, Turku, Finland). […] Determination of the cumulative fraction absorbed (amount permeated), FAcum versus time, FAcum was calculated from: (2) FAcum = ∑ (C(Ri))/(C(Di)), where C(Ri) was the receiver concentration at the end of the interval i and C(Di) was the donor concentration at the beginning of interval i. […] The apical-to-basolateral and the basolateral-to-apical Papp were determined by Equation (1) for each molecule. […]

The test system of data set [11] is BLECs. The data set is described as follows: Immunofluorescence of tight junction proteins ZO-1 and claudin-5. The data set is classed as cell-based, human. The settings on record: 48 h treatment. How it is done:
After 48 h of treatments with or without KBs, BLECs were fixed and permeabilized as described in Table 1. Then, a 30-min blocking with PBS-CMF (0.2 g·L^−1 KH2PO4 , 8.0 g·L^−1 NaCl, 2.87 g·L^−1 Na2HPO4-12H2O, and 0.2 g·L^−1 KCl) with 10% (v/v) normal goat serum (NGS) was performed. Then, cells were incubated for 60 min with the primary antibody in PBS-CMF supplemented with 2% NGS at room temperature (RT), against the target protein as described in Table 1.
After three washes in PBS-CMF supplemented with 2% NGS, the cells were incubated with secondary polyclonal antibody (goat anti-rabbit Alexa 568, A11036, Molecular Probes, Eugene, OR, USA) diluted 1:500 in PBS-CMF supplemented with 2% NGS in the dark for 30 min at RT. Hoechst 33358 was used for nuclei staining. After mounting with Mowiol (Sigma-Aldrich) containing 1,4-diazabicyclo [2.2.2]octane (Sigma-Aldrich), images were taken using a Leica microscope (DMRD; Leica Microsystems, Wetzlar, Germany) and processed using ImageJ32 software.

As to Lucifer Yellow CH dilithium salt, the “endothelial lucifer yellow permeability (PeLY), control conditions” value in data set [1] (untreated BLECs, LY 50 µM in RH buffer, apical-to-basolateral, 1 h, fluorescence 432/538 nm, mean ± SEM, three independent experiments in triplicate) was 0.92 ± 0.03 × 10^−3 cm∙min^−1.

In the case of `CC(O)CC(=O)O` (stereo not drawn) [βHB, Beta-hydroxybutyric acid], the cell viability (commonly the share of living cells, or the viability signal relative to a control) in data set [2] was 95%. In addition, the “increase of MCT1 protein level compared to the control” value in [3] amounted to 24.9%. Further, in data set [4], the “βHB concentration in the BLEC” value is on record as ~ 0.5 mM, the “βHB concentration in the apical compartment” value is recorded as ~ 8.5 mM and the “βHB concentration in the basolateral compartment” value was ~ 6.6 mM. In [4] (37 °C, 5% CO2), the “initially added βHB not detectable” value turned out to be 21.4%. Further, the “βHB in BLECs, % of the total amount of βHB” value in data set [4] (37 °C, 5% CO2, RIPA lysate, β-ketone sticks, mean of three independent experiments) turned out to be 2.4%. Besides, the “βHB in the apical (luminal) compartment, % of the total amount of βHB” value in [4] (37 °C, 5% CO2, β-ketone sticks (Precision-Xtra meter), mean of three independent experiments) is 42.9%. For the same molecule, in data set [4] (37 °C, 5% CO2, β-ketone sticks, mean of three independent experiments), the “βHB in the basolateral (abluminal) compartment, % of the total amount of βHB” value was 33.3%. In addition, the “increase of PICALM protein level compared to the control” value in data set [5] is recorded as 39.1%. The “upregulation of LRP1 protein level compared to the control” value in data set [6] was 109.3%. Moreover, in data set [7], the “stability of βHB in the culture medium” value is recorded as “stable”. Moreover, the “increase of GLUT1 protein level compared to the control” value in data set [8] came out at 51.9%.

With `COc1cc2c(cc1OC)CN(CCc1ccc(NC(=O)c3cccc4c(=O)c5cccc(OC)c5[nH]c34)cc1)CC2` [elacridar, Elacridar, reference compound], in data set [9], the “effect on basolateral-to-apical transport of [3H]inulin after ratio KB treatment” value is listed as “not affected”. Also, the “effect on the increased basolateral-to-apical Aβ1–40Cy5 peptide transport after ratio KB treatment” value in data set [10] is reported as “abolished”.

For `OC[C@@H](O)[C@@H](O)[C@H](O)[C@H](O)CO` [mannitol], in [1] (mannitol treatment of the human in vitro BBB model, p-value ≤ 0.0001), the “increase in PeLY values compared to non-treated cells” value is listed as 620.6%. For the same molecule, the “staining of tight junction proteins ZO-1 and claudin-5 (intercellular contacts)” value in data set [11] was “interruption in the staining for ZO-1 and claudin-5 protein”.

As for `CC(=O)CC(=O)O` [AcAc, acetoacetate], in data set [3], the “increase of MCT1 protein level compared to the control” value is 35.9%. In addition, the “decrease in PeLY compared to the control” value in data set [1] (20 mM, 48 h treatment of BLECs, p-value ≤ 0.0001) is 14.6%. In addition, the “decrease of apical-to-basolateral [3H]inulin transport” value in data set [9] (after 48 h 20 mM AcAc, scintillation counting, p-value = 0.0005) is listed as 12.9%.

B1: RAP: Receptor-associated protein, human, recombinant, E.coli; standard inhibitor for LRP1 (protein, UniProt P30533 35-357, looked up)
Alpha-2-macroglobulin …: YSREKNQPKPSPKRESGEEFRMEKLNQLWEKAQRLHLPPVRLAELHADLKIQERDELAWKKLKLDGLDEDGEKEARLIRNLNVILAKYGLDGKKDARQVTSNSLSGTQEDGLDDPRLEKLWHKAKTSGKFSGEELDKLWREFLHHKEKVHEYNVLLETLSRTEEIHENVISPSDLSDIKGSVLHSRHTELKEKLRSINQGLDRLRRVSHQGYSTEAEFEEPRVIDLWDLAQSANLTDKELEAFREELKHFEAKIEKHNHYQKQLEIAHEKLRHAESVGDGERVSRSREKHALLEGRTKELGYTVKKHLQDLSGRISRARHNEL
Turning to B1, in [9], the “effect on basolateral-to-apical transport of [3H]inulin after ratio KB treatment” value is “not affected”. Further, the “effect on the increased basolateral-to-apical Aβ1–40Cy5 peptide transport after ratio KB treatment” value in [10] is recorded as “abolished”.
